Legend:
[1] = test system: Saporin L3 (SAP); format: biochemical, Saponaria officinalus
[2] = biological target: T1, SAP (saporin L3) (Saponaria officinalis, UniProt Q2QEH4); assay: Ki* quoted in Table 1 from ref 19; format: biochemical; settings: read-out: Inhibition constant Ki* (nM), value taken from Schramm et al. [19]; cited from earlier work
[3] = biological target: T1, SAP (saporin L3); assay: Competitive inhibition of saporin L3 with stem-loop RNA A10; format: biochemical
[4] = test system: SAP and SAP-A14C; assay: Inhibition of SAP hydrolysis of yeast tRNA and rabbit rRNA; format: biochemical, Saponaria officinalus; settings: rabbit 80S ribosome 100 nM or yeast tRNA 1.0 mg/mL; 10 min preincubation

T1 sequence (Q2QEH4 22-280 limits assumed): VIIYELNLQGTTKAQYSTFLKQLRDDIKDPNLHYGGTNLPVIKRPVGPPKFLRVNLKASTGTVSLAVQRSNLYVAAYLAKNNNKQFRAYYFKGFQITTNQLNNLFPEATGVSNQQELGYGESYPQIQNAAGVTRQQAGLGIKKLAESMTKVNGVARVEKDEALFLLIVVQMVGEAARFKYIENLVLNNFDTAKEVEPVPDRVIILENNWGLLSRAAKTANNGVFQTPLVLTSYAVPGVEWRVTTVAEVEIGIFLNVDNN

Compound: PDpHomoSerpGpPD [Compound 52]
- inhibition of SAP (in words) [1]: good inhibitors

Compound: serinol analogue of PDpDIApGpPD (Ser = serinol; PD = propanediol) [PDpSerpGpPD]
- Ki [2]: 43.2 ± 1.1 nM

Compound: PDpGpDIApPD [Compound 39]
- inhibition of SAP (in words) [1]: weak inhibitors

Compound: catalytically inactive substrate analogue PDpApGpPD (adenosine in place of DIA; PD = propanediol)
- Ki ([3]; read-out: Inhibition constant Ki*): 16 µM

Compound: PDpDIApGpPD [Compound 2]
- inhibition of hydrolysis of yeast tRNA and rabbit rRNA by SAP and SAP-A14C [4]: inhibits

Compound: CO[C@@H]1[C@H](O)[C@@H](COP(=O)(O)O[C@H]2CN(Cc3c[nH]c4c(N)ncnc34)C[C@@H]2COP(=O)(O)O[C@H]2[C@@H](OC)[C@H](n3cnc4c(=O)[nH]c(N)nc43)O[C@@H]2CO)O[C@H]1n1cnc2c(=O)[nH]c(N)nc21 [compound 32, GpDIApG (2'-O-methyl guanosines)]
- Ki [3]: 0.033 ± 0.0017 µM

Compound: GpGpDIApPD [Compound 41]
- inhibition of SAP (in words) [1]: weak inhibitors

Compound: PDpApGpPD [reference compound]
- Ki ([1]; RNA A10 substrate, slow-onset dissociation constant): 16.1 µM
